Reference: US20110281726A1, “GLEDITSIA AMORPHOIDES SEEDLESS POD EXTRACT AND ITS USE AS AN AGRICULTURAL ADJUVANT” (IDEASUPPLY.COM ARGENTINA S.A., priority 2005, published 2011)

Tests used:
Assay type in all cases: in vivo
[1] = test system: alfalfa (Medicago Sativa L.); experiment: Influence of CU co-adjuvant on the activity of defoliant Paraquat in alfalfa; details: Paraquat 1 l/ha, CU 0.25% v/v, emulsion oil 1% v/v, five days after treatment, day-night temperatures 30/21° C.
Method: Another application with agrochemicals was conducted by assessing the influence of the “CU” co-adjuvant of the invention on the activity of defoliant “Paraquat” in alfalfa (Medicago Sativa L.)
For such purpose, the effect of the addition of the surfactant Coronillo Ultra (CU) at 0.25% v/v and emulsion oil at 1% v/v to defoliant Paraquat at a 1 l/ha concentration, in conditions of high and low temperatures during both the day and at night on alfalfa was assessed.

[2] = test system: leafmining moth (Phyllocnistis Citrella Stainton); experiment: Control of leafmining moth: field test in a five-year vegetable garden
Method: Finally, the above treatments were tested on the field, in a five-year vegetable garden.

[3] = test system: leafmining moth (Phyllocnistis Citrella Stainton); experiment: Control of leafmining moth: injection into tunnels and application on foliar surface
Source text: Efficacy of “avemectin” and the CU co-adjuvant of the invention to control leafmining moth (Phyllocnistis Citrella Stainton.)
Two assays were designed in order to assess the effect of two concentrations of the Coronillo Ultra surfactant and combinations of both products to control leafmining moth in citrus (Phyllocnistis Citrella Stainton.)
One of the assays was geared to testing the action of the direct contact of the products, both pure and in mixtures, with the larvae of the second and third stages by injecting the solution into the tunnels. The second assay aimed at assessing the effect of its application on the foliar surface affected with tunnels. In both assays, methylene blue dye was used as tracer to assess the flow of the solution inside the tunnel and the larvae.
In the treatments applied over the foliar surface, effects were noticed only when the active penetrated the epidermis and came into contact with the insect inside the tunnel.

Molecule: C[n+]1ccc(-c2cc[n+](C)cc2)cc1 [Paraquat]
- defoliation [1]: 17%

Molecule: avemectin
- control percentage after 14 days [2]: low control percentage
- effect of avemectin applied over the foliar surface ([3]; high concentrations): effective
- effect of avemectin when injected ([3]; low doses): same effect
